Measured values published in paper PMC8330100, “Similarities and differences in the localization, trafficking, and function of P-glycoprotein in MDR1-EGFP-transduced rat versus human brain capillary endothelial cell lines” (Fluids and Barriers of the CNS, 2021).

How the values were obtained:
[1] = Mannitol permeability assay (basolateral to apical) across RBE4 monolayers; assay type: in vitro ADME, rat; details: rat
Procedure: (§1) Incubation was performed under cell culture conditions (37 °C, 5% CO2, humidified atmosphere) on a horizontal shaker (55 rpm). […] Basolateral volume was adjusted after each sampling to compensate for changes in the hydrostatic pressure. TEER measurements before and after the assay were carried out to confirm barrier integrity. The apparent permeability coefficients (Papp) in nm per second were calculated according to Artursson. Each experiment was performed in at least three replicates. As was described for the TEER measurements above, mannitol fluxes were compared in the ThinCert®, Transwell®, and Sarstedt-TC-insert systems, using 6-well and 12-well multiwell plates and different membrane materials. Based on this comparison, all subsequent experiments were performed with ThinCert® cell culture inserts [12-well, 0.4 µm pore size, polyethylene terephthalate (PET)] from Greiner Bio-One.

[2] = system: RBE4 cell monolayers; assay: as above; assay type: in vitro ADME, rat
Procedure: as §1

[3] = Mannitol permeability assay (basolateral to apical) across hCMEC/D3 monolayers; assay type: in vitro ADME, human; details: human
Procedure: as §1

[4] = system: hCMEC/D3 cell monolayers; assay: as above; assay type: in vitro ADME, human
Procedure: as §1

[5] = Paracellular mannitol flux across LLC-MDR1 monolayers; assay type: in vitro ADME, porcine; details: pig, LLC-PK1, corresponding to the flux per hour, read-out: mannitol permeability
[6] = system: LLC-MDR1 cell monolayers; assay: as above; assay type: in vitro ADME, porcine
[7] = system: Pgp expression in RBE4 cells; assay: Western blot of Pgp expression, RBE4 cells; assay type: cell-based, rat
Procedure: (§2) Piet Borst (The Netherlands Cancer Institute, Amsterdam, The Netherlands) as template. The linker sequence in the vector fusing EGFP and MDR1 consists of 36 bp ([…]). hCMEC/D3-WT, RBE4-WT, and hCMEC/D3-MDR1-EGFP cell lines were cultivated as previously described. The same culture conditions were used for the newly prepared RBE4-MDR1-EGFP cell line. As described previously, hydrocortisone (1.4 µM) was added to the culture medium to enhance the expression and functionality of Pgp and transendothelial resistance. All endothelial cell lines were grown on rat-tail collagen I (60 µg/mL, Gibco) coated 100 mm cultures dishes or permeable membrane supports at 37 °C and 5% CO2. Pgp-EGFP protein expression in MDR1-EGFP transduced cells was induced by cell cultivation in medium containing […] doxycycline. Expression of Pgp-EGFP was regularly verified by observing the cells with an inverted fluorescence microscope. Doxycycline supplementation of the medium was maintained during the whole culturing period of Pgp-EGFP expressing cells. For experiments, hCMEC/D3 and RBE4 cells were seeded in a density of 50,000 cells/cm^2. […]
(§3) Pgp expression in immortalized cell lines, primary cells, and brain capillaries was evaluated by western blotting.

[8] = system: Pgp expression in hCMEC/D3 cells; assay: Western blot of Pgp expression, hCMEC/D3 cells; assay type: cell-based, human
Procedure: as §2, §3

[9] = system: Pgp in RBE4-WT cells; assay: Rhodamine 123 uptake/accumulation assay, RBE4-WT cells; assay type: cell-based, rat; details: tariquidar 0.5 µM
Procedure: The functionality of Pgp in RBE4-WT, RBE4-MDR1-EGFP, hCMEC/D3-WT, hCMEC/D3-MDR1-EGFP cells, and primary rBCECs was analyzed by measuring the uptake of the fluorescent Pgp substrate Rho123 (Sigma-Aldrich). Cells were grown on 6-well plates and cultured for seven days in the presence or absence of doxycycline (1 µg/mL, Biochrom). […] Afterward, Rho123 (5 µM, dissolved in ethanol) was added and cells were incubated for another two hours. Rho123 transport was terminated by washing the cells twice with ice-cold PBS. Intracellular Rho123 concentration was determined by cell lysis in standard lysis buffer (25 mM Tris, 50 mM NaCl, 0.5% (w/v) sodium deoxycholate, 0.5% (w/v) Triton X-100) and measurement of fluorescence intensity with the FLUOstar OPTIMA (ex.: 485 nm, em.: 520 nm; BMG Labtech). Protein concentrations were determined using a BCA assay kit (Thermo Fisher Scientific). Rho123 uptake was obtained for each condition in triplicates and calculated as absolute fluorescence per mg protein. Additionally, Pgp functionality was expressed as multidrug resistance activity factor (MAF) as described by Huber et al.. This factor describes Pgp efflux activity based on differences in intracellular Rho123 accumulation in cells after Pgp inhibition compared to cells with active Pgp-mediated efflux. Thus, higher MAF values correlate with increased Pgp activity. For better comparison, differences in Rho123 accumulation are normalized to intracellular Rho123 levels in inhibitor-treated cells. MAF values for Pgp were calculated according to Huber et al. 2012 utilizing the following equation: MAF (%) = 100 · (MFITQ − MFI0)/(MFITQ) where MFITQ and MFI0 represent the mean fluorescence intensity of intracellular Rho123 in tariquidar (TQ)-treated and non-treated cells, respectively.

[10] = molecular target: T1, Pgp in RBE4-MDR1-EGFP cells (Homo sapiens, UniProt P08183); assay: Rhodamine 123 uptake/accumulation assay, RBE4-MDR1-EGFP cells; assay type: cell-based, rat; details: RBE4-MDR1-EGFP in the presence of doxycycline; tariquidar 0.5 µM
T1 construct: expressed in transfected cells; host or cells: RBE4 (rat BCEC line), lentiviral transduction, doxycycline-inducible
T1 sequence (P08183 with tags, fused parts or gaps): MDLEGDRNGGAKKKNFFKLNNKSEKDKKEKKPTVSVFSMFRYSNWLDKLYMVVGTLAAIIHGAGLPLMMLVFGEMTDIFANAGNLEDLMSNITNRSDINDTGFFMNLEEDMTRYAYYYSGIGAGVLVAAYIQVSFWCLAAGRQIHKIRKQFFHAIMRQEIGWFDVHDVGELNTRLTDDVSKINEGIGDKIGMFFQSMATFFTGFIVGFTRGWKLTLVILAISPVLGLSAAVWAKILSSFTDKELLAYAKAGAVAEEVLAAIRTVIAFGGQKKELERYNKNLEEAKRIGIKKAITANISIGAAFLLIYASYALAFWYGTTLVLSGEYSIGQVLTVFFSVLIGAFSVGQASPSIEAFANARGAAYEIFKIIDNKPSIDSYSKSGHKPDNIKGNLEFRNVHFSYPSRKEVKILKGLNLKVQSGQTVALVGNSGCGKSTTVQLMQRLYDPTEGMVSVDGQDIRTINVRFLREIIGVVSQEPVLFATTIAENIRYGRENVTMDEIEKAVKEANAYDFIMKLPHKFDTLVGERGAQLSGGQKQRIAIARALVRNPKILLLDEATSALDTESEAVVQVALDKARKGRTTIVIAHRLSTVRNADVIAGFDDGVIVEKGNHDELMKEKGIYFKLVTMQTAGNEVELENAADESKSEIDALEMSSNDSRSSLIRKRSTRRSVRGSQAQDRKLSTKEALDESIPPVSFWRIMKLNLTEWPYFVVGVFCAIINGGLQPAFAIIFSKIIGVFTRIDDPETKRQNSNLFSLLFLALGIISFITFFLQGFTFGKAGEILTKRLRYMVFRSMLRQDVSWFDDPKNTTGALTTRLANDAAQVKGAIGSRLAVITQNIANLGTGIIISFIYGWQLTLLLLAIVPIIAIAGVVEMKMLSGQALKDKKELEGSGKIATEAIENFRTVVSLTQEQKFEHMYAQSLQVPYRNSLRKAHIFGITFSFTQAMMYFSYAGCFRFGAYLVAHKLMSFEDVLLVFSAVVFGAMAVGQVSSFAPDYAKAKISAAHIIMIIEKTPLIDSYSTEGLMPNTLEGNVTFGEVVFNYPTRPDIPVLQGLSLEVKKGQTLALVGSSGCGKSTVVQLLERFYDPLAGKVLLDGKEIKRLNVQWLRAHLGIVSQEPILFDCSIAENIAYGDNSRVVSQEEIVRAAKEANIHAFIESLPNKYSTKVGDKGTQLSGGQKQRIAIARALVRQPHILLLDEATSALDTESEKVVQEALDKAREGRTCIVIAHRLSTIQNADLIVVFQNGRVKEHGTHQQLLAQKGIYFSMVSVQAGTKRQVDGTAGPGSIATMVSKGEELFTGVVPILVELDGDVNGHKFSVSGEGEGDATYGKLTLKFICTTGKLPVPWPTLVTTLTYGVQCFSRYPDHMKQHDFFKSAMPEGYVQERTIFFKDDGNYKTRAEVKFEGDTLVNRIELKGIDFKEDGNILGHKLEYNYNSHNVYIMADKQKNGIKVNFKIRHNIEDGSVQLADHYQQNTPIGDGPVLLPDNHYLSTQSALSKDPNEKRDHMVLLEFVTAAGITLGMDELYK
Procedure: as §2, with “cells/cm^2. Immortalized MDR1 transfected porcine kidney LLC-PK1 (LLC-MDR1) cells, which were used as a reference standard for vectorial transport experiments, were kindly provided by Prof. Piet Borst.” for “cells/cm^2.”

[11] = molecular target: T2, Pgp in hCMEC/D3-WT cells (Homo sapiens, UniProt P08183); assay: Rhodamine 123 uptake/accumulation assay, hCMEC/D3-WT cells; assay type: cell-based; details: tariquidar 0.5 µM
T2 construct: endogenous in cells; host or cells: hCMEC/D3-WT
T2 sequence (P08183 whole entry): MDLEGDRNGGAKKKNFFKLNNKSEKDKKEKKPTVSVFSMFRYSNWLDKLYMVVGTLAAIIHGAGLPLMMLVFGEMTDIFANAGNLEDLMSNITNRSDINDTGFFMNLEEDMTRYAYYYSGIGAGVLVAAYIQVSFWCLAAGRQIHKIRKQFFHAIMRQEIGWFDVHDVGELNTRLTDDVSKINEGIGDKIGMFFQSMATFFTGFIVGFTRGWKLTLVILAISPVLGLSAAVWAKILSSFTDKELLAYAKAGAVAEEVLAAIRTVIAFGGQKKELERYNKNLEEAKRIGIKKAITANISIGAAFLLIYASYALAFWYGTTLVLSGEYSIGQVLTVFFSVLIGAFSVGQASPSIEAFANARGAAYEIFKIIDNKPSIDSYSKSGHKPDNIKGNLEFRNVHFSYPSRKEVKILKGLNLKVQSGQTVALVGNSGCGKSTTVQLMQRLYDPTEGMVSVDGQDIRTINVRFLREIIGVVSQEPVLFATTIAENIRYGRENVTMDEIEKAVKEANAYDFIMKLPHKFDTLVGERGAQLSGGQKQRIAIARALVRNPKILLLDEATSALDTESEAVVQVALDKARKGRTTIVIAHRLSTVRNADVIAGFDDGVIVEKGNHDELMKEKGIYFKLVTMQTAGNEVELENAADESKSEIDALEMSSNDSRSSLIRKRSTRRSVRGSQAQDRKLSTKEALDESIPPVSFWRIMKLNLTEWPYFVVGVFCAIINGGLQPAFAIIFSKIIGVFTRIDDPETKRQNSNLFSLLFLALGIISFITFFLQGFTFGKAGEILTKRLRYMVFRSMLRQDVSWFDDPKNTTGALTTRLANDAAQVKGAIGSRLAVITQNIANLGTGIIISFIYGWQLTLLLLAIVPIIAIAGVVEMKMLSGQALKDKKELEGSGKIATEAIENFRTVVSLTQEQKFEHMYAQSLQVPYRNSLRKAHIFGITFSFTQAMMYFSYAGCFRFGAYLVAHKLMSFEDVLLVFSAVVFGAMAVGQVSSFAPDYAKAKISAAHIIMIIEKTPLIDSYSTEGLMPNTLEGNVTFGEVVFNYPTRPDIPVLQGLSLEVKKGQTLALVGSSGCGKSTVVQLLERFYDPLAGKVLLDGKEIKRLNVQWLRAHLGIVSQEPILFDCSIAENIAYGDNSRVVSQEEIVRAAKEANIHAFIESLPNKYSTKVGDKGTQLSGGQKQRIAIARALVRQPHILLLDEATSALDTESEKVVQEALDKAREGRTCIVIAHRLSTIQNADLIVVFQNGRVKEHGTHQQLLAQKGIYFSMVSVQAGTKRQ
Procedure: The functionality of Pgp in RBE4-WT, RBE4-MDR1-EGFP, hCMEC/D3-WT, hCMEC/D3-MDR1-EGFP cells, and primary rBCECs was analyzed by measuring the uptake of the fluorescent Pgp substrate Rho123 (Sigma-Aldrich). Cells were grown on 6-well plates and cultured for seven days in the presence or absence of doxycycline (1 µg/mL, Biochrom). […] Afterward, Rho123 (5 µM, dissolved in ethanol) was added and cells were incubated for another two hours. Rho123 transport was terminated by washing the cells twice with ice-cold PBS. […] Rho123 uptake was obtained for each condition in triplicates and calculated as absolute fluorescence per mg protein. Additionally, Pgp functionality was expressed as multidrug resistance activity factor (MAF) as described by Huber et al. [40]. This factor describes Pgp efflux activity based on differences in intracellular Rho123 accumulation in cells after Pgp inhibition compared to cells with active Pgp-mediated efflux. Thus, higher MAF values correlate with increased Pgp activity. […] MAF values for Pgp were calculated according to Huber et al. 2012 utilizing the following equation: MAF (%) = 100 · (MFITQ − MFI0)/(MFITQ) where MFITQ and MFI0 represent the mean fluorescence intensity of intracellular Rho123 in tariquidar (TQ)-treated and non-treated cells, respectively.

[12] = system: Pgp in primary rBCECs; assay: Rhodamine 123 uptake/accumulation assay, primary rBCECs; assay type: cell-based, rat; details: tariquidar 0.5 µM, P < 0.0001
Source text: The RBE4 and hCMEC/D3 cell lines used here are immortalized, which has the advantage that these cells are stable for several passages and may yield a large number of endothelial cells with the same genetic and phenotypical characteristics. The immortalization status, however, causes several alterations as compared to the native original cell type, including low junctional tightness of cell monolayers and reduced expression of efflux transporters such as Pgp. Therefore, for comparison with the MDR1-EGFP transduced rat RBE4 cells, experiments were also performed with primary cultured rat brain capillary endothelial cells (rBCECs). As described by us previously, rBCECs were prepared following a protocol by Régina et al. and Perrière et al. from 2 to 3 weeks old Wistar rats (obtained from Charles River; Sulzfeld, Germany). All animals were treated according to protocols evaluated and approved by the ethical committee of our university. In short, meninges were removed from cerebral cortices in phosphate-buffered saline (PBS) with 1% penicillin (100 U/mL)/streptomycin (100 μg/mL) (Biochrom AG) on ice. Subsequently, cortices were mechanically dissociated with scalpels. […]
The functionality of Pgp in RBE4-WT, RBE4-MDR1-EGFP, hCMEC/D3-WT, hCMEC/D3-MDR1-EGFP cells, and primary rBCECs was analyzed by measuring the uptake of the fluorescent Pgp substrate Rho123 (Sigma-Aldrich). […] Intracellular Rho123 concentration was determined by cell lysis in standard lysis buffer (25 mM Tris, 50 mM NaCl, 0.5% (w/v) sodium deoxycholate, 0.5% (w/v) Triton X-100) and measurement of fluorescence intensity with the FLUOstar OPTIMA (ex.: 485 nm, em.: 520 nm; BMG Labtech). Protein concentrations were determined using a BCA assay kit (Thermo Fisher Scientific). Rho123 uptake was obtained for each condition in triplicates and calculated as absolute fluorescence per mg protein. Additionally, Pgp functionality was expressed as multidrug resistance activity factor (MAF) as described by Huber et al.. […]

[13] = RBE4-MDR1 + dox, 7 days after seeding, basolateral to apical, ThinCert 12-well, 0.4 µm, PET
[14] = RBE4-WT, 6-well, Corning #3412, PC, 1·10^8 pores/cm²
[15] = RBE4-WT, 12-well, Corning #3460, PET, 4·10^6 pores/cm²
[16] = RBE4-WT, 12-well, Sarstedt #83.3931.040, PET, 1·10^8 pores/cm²
[17] = RBE4-WT, 7 days after seeding, basolateral to apical, ThinCert (Greiner #665641) 12-well, 0.4 µm, PET, 2·10^6 pores/cm²
[18] = hCMEC/D3-MDR1 + dox, 7 days after seeding, basolateral to apical, ThinCert 12-well, 0.4 µm, PET
[19] = hCMEC/D3-WT, 12-well, Corning #3460, PET, 4·10^6 pores/cm²
[20] = hCMEC/D3-WT, 7 days after seeding, basolateral to apical, ThinCert (Greiner #665641) 12-well, 0.4 µm, PET, 2·10^6 pores/cm²
[21] = hCMEC/D3-WT, 6-well, Corning #3412, PC, 1·10^8 pores/cm²

Molecule OC[C@@H](O)[C@@H](O)[C@H](O)[C@H](O)CO [Mannitol, D-mannitol] has a Papp at 180 min, 1.85 kBq/mL [1, 13] of 6.07 ± 0.159 ×10⁻⁶ cm/s, a Papp at 180 min, 1.85 kBq/mL [1, 14] of 11.3 ± 1.18 ×10⁻⁶ cm/s and a Papp at 180 min, 1.85 kBq/mL [1, 15] of 15.4 ± 0.215 ×10⁻⁶ cm/s. It also gave a Papp at 180 min, 1.85 kBq/mL [1, 16] of 21 ± 0.352 ×10⁻⁶ cm/s, a Papp at 180 min, 1.85 kBq/mL [1, 17] of 5.96 ± 0.407 ×10⁻⁶ cm/s and a Mannitol permeability [2, 13] of 4.30 ± 0.22 %/h. The Mannitol permeability [2, 14] was 13.62 ± 0.80 %/h, the Mannitol permeability [2, 15] was 11.15 ± 0.24 %/h and the Mannitol permeability [2, 16] was 19.18 ± 0.13 %/h. For the same molecule, the Mannitol permeability [2, 17] was 4.20 ± 0.30 %/h, the Papp at 180 min, 1.85 kBq/mL [3, 18] was 5.67 ± 0.252 ×10⁻⁶ cm/s and the Papp at 180 min, 1.85 kBq/mL [3, 19] was 13.5 ± 0.372 ×10⁻⁶ cm/s. It also gave a Papp at 180 min, 1.85 kBq/mL ([3]; hCMEC/D3-WT, 12-well, Sarstedt #83.3931.040, PET, 1·10^8 pores/cm²) of 19.8 ± 0.489 ×10⁻⁶ cm/s, a Papp at 180 min, 1.85 kBq/mL [3, 20] of 5.38 ± 0.432 ×10⁻⁶ cm/s and a Papp B→A at 180 min, 1.85 kBq/mL [3, 21] of 10 ×10⁻⁶ cm/s. For the same molecule, the Mannitol permeability [4, 18] was 3.81 ± 0.11 %/h, the Mannitol permeability [4, 21] was 14.76 ± 1.01 %/h and the Mannitol permeability [4, 19] was 11.17 ± 0.36 %/h. The Mannitol permeability [4, 20] was 3.71 ± 0.13 %/h, the Papp at 180 min, 1.85 kBq/mL [5] was less than 1.2 ×10⁻⁶ cm/s and the paracellular mannitol flux [6] was “less than 1 % of mannitol diffusion per hour”.

For C[C@H]1c2cccc(O)c2C(=O)C2=C(O)[C@]3(O)C(=O)C(C(N)=O)=C(O)[C@@H](N(C)C)[C@@H]3[C@@H](O)[C@@H]21 [dox, doxycycline], the “increase of Pgp expression in comparison to WT cells” value ([7]; RBE4-MDR1-EGFP in the presence of dox, normalized to β-actin) was 9 fold, the “effect on Pgp expression in WT cells” value ([7]; RBE4-WT) was “did not affect” and the “increase of Pgp expression in comparison to WT cells” value ([8]; hCMEC/D3-MDR1-EGFP in the presence of dox, normalized to β-actin) was “sevenfold”. For the same molecule, the “effect on Pgp expression in WT cells” value ([8]; hCMEC/D3-WT) was “did not affect”.

For COc1cc2c(cc1OC)CN(CCc1ccc(NC(=O)c3cc(OC)c(OC)cc3NC(=O)c3cnc4ccccc4c3)cc1)CC2 [tariquidar], the “effect of Pgp inhibitor on accumulation of Rho123” value [9] was “significantly increased”, the “effect of Pgp inhibitor on increased Pgp-mediated Rho123 efflux” value [10] was “could be inhibited” and the “effect of Pgp inhibitor on accumulation of Rho123” value [11] was “significantly increased”. The “effect of Pgp inhibitor in Rho123 uptake assay” value [12] was “significant effect”.
